Experimental findings from patent publication US12213960B2, “Method of preventing or improving UV-induced skin damage using hydroangenol as active ingredient” (COSMAXBIO CO., LTD., priority 2017, dated 2025) are described below.

Structures are written as SMILES.

Type in all cases: cell-based, human
One data set has as its system HS68 fibroblasts. The data set is described as follows: MTT assay of cell viability/proliferation after UV-B damage, dermal cells. The method, then: (§1) Samples obtained in Examples 1 and 2 were measured in regards to the effect in recovering the skin damaged from UV-B exposure. In this experiment, HaCaT keratinocytes and HS68 fibroblasts were used as epidermal and dermal cells, respectively. In order to evaluate the possible efficacy of each sample in preventing or improving the UV-induced damage of skin cells, the cells were seeded into a 96-well microplate at a density of 1.0×10^4 cells/well and stabilized for 24 hours. Next, the culture medium was exchanged to a new one supplemented with the sample, and the cells were incubated for 24 hours. For UV-B irradiation, the culture medium was removed, washed with PBS, and exposed to UV-B radiation at 15 mJ/cm^2. After an incubation of 24 hours in a culture medium supplemented with the sample, the cells were subjected to an MTT assay to measure cell viability. The MTT assay measures the reduction of a tetrazolium component (MTT) into a formazan product by the mitochondria of viable cells. More specifically, 50 μl of a 5 mg/ml MTT solution was added to the cells, and after an incubation of 4 hours, the culture solution was completely removed and cells were dissolved in DMSO. The absorbance of the DMSO solution in the microplate was quantified by spectrophotometry at 540 nm.
A general note: Tetrazolium assays rely on reduction of a dye to a coloured formazan, in cell work by metabolically active cells.

For data set [1], the system named is procollagen type 1 secretion in dermal Hs68 fibroblasts. The data set is described as follows: Analysis of procollagen type-1 content (PIP EIA). The protocol:
Samples obtained in Examples 1 or 2 were measured in regards to the effect of increasing procollagen type 1 in dermal Hs68 fibroblasts. In order to evaluate the effect of each sample in increasing secretion of procollagen type 1, the cells were seeded into a 24-well microplate at a density of 1.0×10^5 cells/well and stabilized for 24 hours. Next, the culture medium was exchanged to a new one supplemented with the sample, and the cells were incubated for 24 hours. For UV-B irradiation, the culture medium was removed, washed with PBS, and exposed to UV-B radiation at 15 mJ/cm^2. After an incubation of 48 hours in a culture medium supplemented with the sample, the resultant supernatant was measured in regards to the degree of secretion of procollagen type 1 by using a Procollagen type 1 C-peptide (PIP) EIA kit (Mk101, Takara, Japan).

Data set [2] deals with hyaluronic acid secretion in epidermal HaCaT keratinocytes. In words: Analysis of hyaluronic acid content (ELISA), epidermal cells. The protocol: (§2) Samples obtained in Examples 1 and 2 were measured in regards to the effect of increasing hyaluronic acid in epidermal HaCaT keratinocytes and dermal Hs68 fibroblasts. In order to evaluate the effect of each sample in increasing hyaluronic acid, the cells were seeded into a 24-well microplate at a density of 1.0×10^5 cells/well and stabilized for 24 hours. Next, the culture medium was exchanged to a new one supplemented with the sample, and the cells were incubated for 24 hours. For UV-B irradiation, the culture medium was removed, washed with PBS, and exposed to UV-B radiation at 15 mJ/cm^2. After an incubation of 24 hours in a culture medium supplemented with the sample, the resultant supernatant was measured in regards to the degree of secretion of hyaluronic acid by using a TECOR Hyaluronic Acid PLUS ELISA kit (TE 1018-2, TECO Medical Group, US).

The subject of data set [3] is hyaluronic acid secretion in dermal Hs68 fibroblasts. The data set is described as follows: Analysis of hyaluronic acid content (ELISA), dermal cells. The protocol:
as §2
A general note: ELISA stands for enzyme-linked immunosorbent assay.

For data set [4], the system named is MMP-1 secretion in dermal Hs68 fibroblasts. The data set is described as follows: Quantitative analysis of MMP-1 secretion (ELISA), dermal cells. The method, then:
(§3) Samples obtained in Examples 1 and 2 were measured in regards to the inhibitory effect against the secretion of MMP-1 in epidermal HaCat keratinocytes and dermal Hs68 fibroblasts. In order to evaluate the effect of each sample in reducing MMP-1, the cells were seeded into a 24-well microplate at a density of 1.0×10^5 cells/well and stabilized for 24 hours. Next, the culture medium was exchanged to a new one supplemented with the sample, and the cells were incubated for 24 hours. For UV-B irradiation, the culture medium was removed, washed with PBS, and exposed to UV-B radiation at 15 mJ/cm^2. After an incubation of 48 hours in a culture medium supplemented with the sample, the resultant supernatant was measured in regards to the degree of secretion of MMP-1 by using an MMP-1 Human ELISA kit (ab100603, abcam, US).

The next data set relates to HaCaT keratinocytes. The data set is described as follows: MTT assay of cell viability/proliferation after UV-B damage, epidermal cells. The method, then:
as §1

Data set [5] concerns MMP-1 secretion in epidermal HaCat keratinocytes. In words: Quantitative analysis of MMP-1 secretion (ELISA), epidermal cells. Conditions: epidermal cells damaged by UV-B radiation of 15 mJ/cm2. The protocol:
as §3

Where [6] appears, read: 1 μM hydrangenol, dermal cells, UV-B 15 mJ/cm2.
Setting [7] is: dermal cells damaged by UV-B radiation of 15 mJ/cm2.
The mark [8] stands for this setting: 1 μM hydrangenol, epidermal cells, UV-B 15 mJ/cm2.
Where [9] appears, read: epidermal cells damaged by UV-B radiation of 15 mJ/cm2.

As for `O=C1OC(c2ccc(O)cc2)Cc2cccc(O)c21` (stereo not drawn) [hydrangenol, 8-hydroxy-3-(4-hydroxyphenyl)-3,4-dihydroisochromen-1-one], the “cell proliferation effect compared with 10 μM EGCG” value in the data set on HS68 fibroblasts (setting [6]) and in the data set with HaCaT keratinocytes (setting [8]) was “equivalent to 10 μM EGCG” throughout. Moreover, the cell proliferation entry in the data set on HS68 fibroblasts (setting [7]) and with HaCaT keratinocytes (setting [9]) was “effective in promoting cell proliferation” in each case. Moreover, the cytotoxicity entry with HS68 fibroblasts (setting [7]) and with HaCaT keratinocytes (setting [9]) was “non-cytotoxic” throughout. In data set [1] (setting [6]), the “procollagen production effect compared with 10 μM EGCG” value was “equivalent to 10 μM EGCG”. Besides, in data set [1] (setting [7]), the production of procollagen result is recorded as “increased the production of procollagen”. Moreover, the “effect in producing hyaluronic acid” value in data set [2] (setting [8]) and in data set [3] (setting [6]) was “excellent effect in producing hyaluronic acid” each time. The “production of hyaluronic acid” value in data set [2] (setting [9]) and in data set [3] (setting [7]) was “increased the production of hyaluronic acid” in each case. Also, the “production of MMP-1” value in data set [4] (setting [7]) and in data set [5] was “inhibited the production of MMP-1 in a concentration-dependent manner” each time. The “inhibitory effect against the production of MMP-1 compared with EGCG” value in data set [4] (dermal cells, same concentration as EGCG) is “far superior to the EGCG”.
